This is an account of results in patent US5063205A, “Uptake of iron by the body” (National Research Development Corporation, priority 1987, dated 1991).

Series [1] has as its system tied-off loop of intestine of an anaesthetised mouse. Nature of the series: In vivo 59Fe3+ uptake from tied-off loop of intestine of anaesthetised mouse. Here is the method: (§1) (A) Six week old, male To mice received doses averaging 1 n.mole/day of mouse epidermal growth factor in their drinking water during a period of up to 7 days, a control group of similar mice receiving plain drinking water. Iron absorption was then studied in the mice by both in vitro and in vivo techniques. The former, using techniques as described by Raja et al, Cell Biochem. and Funct., 1987, 5, 69-76, involved incubation of intestinal fragments from the mice with a 0-450 μM solution of a Fe^3+ chelate (the 2:1 nitrilotriacetate:iron(III) complex) whilst the latter, using techniques as described by Simpson and Peters, Biochim. Biophys. Acta., 1986, 856, 115-122), involved instillation of 50-100 μl of a 250 μM solution of the Fe^3+ chelate into a tied-off loop of intestine of an anaesthetised mouse.

The conditions of series [2]: given intravenously; cited from earlier work.
In the next series the test system is mice. Nature of the series: Whole body retention of intragastric 59Fe3+ by gamma counting. It is filed as in vivo, mouse. As to conditions: EGF in drinking water for 3 days, 12 hours fast, intragastric 1 μCurie 59Fe3+ as 50 μl of 100 μM chelate; whole body count. On the procedure: (B) The procedure described under (A) was repeated but with the treated mice receiving the EGF for 3 rather than 7 days. After fasting for 12 hours both the EGF-treated and the control mice were treated intragastrically with 1 μCurie of ^59 Fe^3+ administered as 50 μl of a 100 μM aqueous solution of the radiolabelled 2:1 nitrilotriacetic acid:iron(III) complex. The mice were subjected to a whole body count by gamma counting at 3 hours and 7 days later.

Series [3] concerns intestinal fragments from the mice. Nature of the series: In vitro 59Fe3+ uptake by intestinal fragments from EGF-fed mice. Set-up: species or system mouse. As to conditions: intestinal fragments of mice given about 1 n.mole/day EGF in drinking water; 0-450 μM Fe3+ nitrilotriacetate chelate; n in parentheses. Here is the method: as §1
A further series has as its system duodenum. Nature of the series: Duodenum wet weight and cell turnover (L-ornithine decarboxylase activity) after oral EGF. It is filed as in vivo, mouse. As to conditions: oral EGF about 1 n.mole/day, up to 7 days.
[4] abbreviates: mean ± SE, oral EGF about 1 n.mole/day in drinking water, 250 μM Fe3+ chelate in tied-off loop, p < 0.01 vs controls.

For epidermal growth factor [EGF], the “Time course of total mucosal uptake of 59Fe3+ in vivo” value in series [1] (EGF in drinking water for up to 7 days) is given as “maximal after 3 days”. The Total mucosal flux in series [1] (mean ± SE, oral EGF about 1 n.mole/day in drinking water, 250 μM Fe3+ chelate in tied-off loop, p < 0.001 vs controls) was 92.4 ± 8.4 pmol 59Fe3+ /mg tissue/10 minu. For the same substance, in series [1] (setting [4]), the Carcass transfer was 35.3 ± 2.6 pmol 59Fe3+ /mg tissue/10 minu and the Mucosal retention is on record as 57.1 ± 6.3 pmol 59Fe3+ /mg tissue/10 minu. Moreover, in series [2], the “Half life in vivo” value is on record as “about 21/2”. For the same substance, in the series with mice, the “Percentage of the 59Fe3+ present at 3 hours which was retained after 7 days” value is 21.0±3.2. In series [3], the “Vmax for 59Fe3+ uptake” value amounted to 9.4 ± 1.1 pmol/mg/min. In addition, the “Cell turnover rates as reflected by L-ornithine decarboxylase activity in the duodenum” value in the series with duodenum is “elevated”.
